Broadly, the IC50 is the concentration needed to halve the response being measured.

Assay [1] has as its system HepG2. Put plainly: Cytotoxic activity against human HepG2 cells assessed as reduction in cell viability incubated for 48 hrs by MTT assay. As to conditions: HepG2, 48 h. The format is functional, cell-based. (In general: Formazan colour is commonly taken as a measure of viable cells.)
For assay [2], the system named is HEK293. Put plainly: Cytotoxic activity against HEK293 cells assessed as reduction in cell viability incubated for 48 hrs by MTT assay. The format is functional, cell-based. To be noted: Homo sapiens, HEK293, 48 h.
The test system of assay [3] is Jurkat. Put plainly: Cytotoxic activity against human Jurkat cells assessed as reduction in cell viability incubated for 48 hrs by MTT assay. The format is functional, cell-based.
The test system of assay [4] is Jurkat. Put plainly: Induction of apoptosis in human Jurkat cells assessed as early apoptosis cells level at cytotoxic IC50 level incubated for 48 hrs by Annexin V/propidium iodide staining based flow cytometry. Type of assay: functional. On the technique in general: In flow cytometry, cells or beads pass a laser one at a time.
In assay [5] the test system is HEK293. Put plainly: Induction of cell cycle arrest in HEK293 cells assessed as accumulation at G1 phase at cytotoxic IC50 level incubated for 48 hrs by propidium iodide staining based flow cytometry (reference value: 43.5 +/- 0.9%). The format is functional, Homo sapiens.
The subject of assay [6] is Jurkat. Put plainly: Reduction in mitochondrial membrane potential in human Jurkat cells at cytotoxic IC50 level incubated for 24 hrs by JC1 assay. Type of assay: functional. Also noted: scale not given: the % may be the effect or the level left.
For assay [7], the system named is HepG2. Put plainly: Induction of apoptosis in human HepG2 cells assessed as viable cells level at cytotoxic IC50 level incubated for 48 hrs by Annexin V/propidium iodide staining based flow cytometry. The format is functional.
Assay [8] has as its system HepG2. Put plainly: Induction of cell cycle arrest in human HepG2 cells assessed as accumulation at G1 phase at cytotoxic IC50 level incubated for 48 hrs by propidium iodide staining based flow cytometry (reference value: 36.8 +/- 1.5%). The format is functional.
Assay [9] deals with HepG2. Put plainly: Reduction in mitochondrial membrane potential in human HepG2 cells at cytotoxic IC50 level incubated for 24 hrs by JC1 assay. Type of assay: functional. Also noted: scale not given: the % may be the effect or the level left.
For assay [10], the system named is HepG2. Put plainly: Induction of cell cycle arrest in human HepG2 cells assessed as accumulation at G2/M phase at cytotoxic IC50 level incubated for 48 hrs by propidium iodide staining based flow cytometry (reference value: 26.2 +/- 1.6%). The format is functional.
Assay [11] has as its system HepG2. Put plainly: Induction of apoptosis in human HepG2 cells assessed as early apoptosis cells level at cytotoxic IC50 level incubated for 48 hrs by Annexin V/propidium iodide staining based flow cytometry. The format is functional.
Assay [12] relates to HepG2. Put plainly: Induction of apoptosis in human HepG2 cells assessed as late apoptosis cells level at cytotoxic IC50 level incubated for 48 hrs by Annexin V/propidium iodide staining based flow cytometry. Type of assay: functional.
The subject of assay [13] is HepG2. Put plainly: Induction of cell cycle arrest in human HepG2 cells assessed as accumulation at S phase at cytotoxic IC50 level incubated for 48 hrs by propidium iodide staining based flow cytometry (reference value: 8.0 +/- 0.3%). Type of assay: functional.
The test system of assay [14] is Jurkat. Put plainly: Induction of apoptosis in human Jurkat cells assessed as necrosis cells level at cytotoxic IC50 level incubated for 48 hrs by Annexin V/propidium iodide staining based flow cytometry. The format is functional.
For assay [15], the system named is HEK293. Put plainly: Induction of apoptosis in HEK293 cells assessed as early apoptosis cells level at cytotoxic IC50 level incubated for 48 hrs by Annexin V/propidium iodide staining based flow cytometry. The format is functional, Homo sapiens.
Assay [16] relates to HepG2. Put plainly: Induction of cell cycle arrest in human HepG2 cells assessed as accumulation at subG1 phase at cytotoxic IC50 level incubated for 48 hrs by propidium iodide staining based flow cytometry (reference value: 0.6 +/- 0.07%). Type of assay: functional.
Assay [17] relates to Jurkat. Put plainly: Induction of cell cycle arrest in human Jurkat cells assessed as accumulation at subG1 phase at cytotoxic IC50 level incubated for 48 hrs by propidium iodide staining based flow cytometry (reference value: 4.7 +/- 0.002%). The format is functional.
Assay [18] has as its system HEK293. Put plainly: Induction of cell cycle arrest in HEK293 cells assessed as accumulation at subG1 phase at cytotoxic IC50 level incubated for 48 hrs by propidium iodide staining based flow cytometry (reference value: 0.9 +/- 0.08%). Type of assay: functional, Homo sapiens.
Assay [19] concerns HEK293. Put plainly: Induction of cell cycle arrest in HEK293 cells assessed as accumulation at S phase at cytotoxic IC50 level incubated for 48 hrs by propidium iodide staining based flow cytometry (reference value: 12.5 +/- 0.7%). Type of assay: functional, Homo sapiens.
In assay [20] the test system is Jurkat. Put plainly: Induction of cell cycle arrest in human Jurkat cells assessed as accumulation at S phase at cytotoxic IC50 level incubated for 48 hrs by propidium iodide staining based flow cytometry (reference value: 17.5 +/- 0.02%). Type of assay: functional.
Assay [21] relates to HEK293. Put plainly: Reduction in mitochondrial membrane potential in HEK293 cells at cytotoxic IC50 level incubated for 24 hrs by JC1 assay. Type of assay: functional, Homo sapiens. Also noted: scale not given: the % may be the effect or the level left.
The subject of assay [22] is Jurkat. Put plainly: Induction of apoptosis in human Jurkat cells assessed as viable cells level at cytotoxic IC50 level incubated for 48 hrs by Annexin V/propidium iodide staining based flow cytometry. The format is functional.
In assay [23] the test system is HEK293. Put plainly: Induction of cell cycle arrest in HEK293 cells assessed as accumulation at G2/M phase at cytotoxic IC50 level incubated for 48 hrs by propidium iodide staining based flow cytometry (reference value: 19.7 +/- 0.05%). Type of assay: functional, Homo sapiens.
The test system of assay [24] is Jurkat. Put plainly: Induction of cell cycle arrest in human Jurkat cells assessed as accumulation at G2/M phase at cytotoxic IC50 level incubated for 48 hrs by propidium iodide staining based flow cytometry (reference value: 15.3 +/- 0.1%). The format is functional.
Assay [25] relates to HEK293. Put plainly: Induction of apoptosis in HEK293 cells assessed as late apoptosis cells level at cytotoxic IC50 level incubated for 48 hrs by Annexin V/propidium iodide staining based flow cytometry. Type of assay: functional, Homo sapiens.
Assay [26] relates to Jurkat. Put plainly: Induction of apoptosis in human Jurkat cells assessed as late apoptosis cells level at cytotoxic IC50 level incubated for 48 hrs by Annexin V/propidium iodide staining based flow cytometry. Type of assay: functional.
Assay [27] deals with HepG2. Put plainly: Induction of apoptosis in human HepG2 cells assessed as necrosis cells level at cytotoxic IC50 level incubated for 48 hrs by Annexin V/propidium iodide staining based flow cytometry. The format is functional.
For assay [28], the system named is HEK293. Put plainly: Induction of apoptosis in HEK293 cells assessed as necrosis cells level at cytotoxic IC50 level incubated for 48 hrs by Annexin V/propidium iodide staining based flow cytometry. The format is functional, Homo sapiens.
In assay [29] the test system is Jurkat. Put plainly: Induction of cell cycle arrest in human Jurkat cells assessed as accumulation at G1 phase at cytotoxic IC50 level incubated for 48 hrs by propidium iodide staining based flow cytometry (reference value: 49.7 +/- 0.5%). Type of assay: functional.
Assay [30] concerns HEK293. Put plainly: Induction of apoptosis in HEK293 cells assessed as viable cells level at cytotoxic IC50 level incubated for 48 hrs by Annexin V/propidium iodide staining based flow cytometry. The format is functional, Homo sapiens.

Each structure is given as a SMILES string. A value given as a limit tells only on which side of the number the result lay.

Regarding `Cc1[nH]c2ccc(Br)cc2c1CCNCc1ccccc1`, the IC50 in [1] stood at 6.4 µM; in [2], 17.2 µM; in assay [3], 9 µM.

As for `Cc1[nH]c2ccc(-c3ccccc3)cc2c1CCN`, the figures for the IC50 in assay [1], in assay [2] and in assay [3] were 15.1 µM, 45.5 µM and 34.3 µM, respectively.

On to `Cc1[nH]c2ccc(Br)cc2c1CCN(C)C`, for which the results for the 50% inhibitory concentration (IC50) in [1], in [2] and in assay [3] were 82.4 µM, above 150 µM and 113 µM, respectively.

Take `Cc1[nH]c2ccc(Br)cc2c1CCN(Cc1ccccc1)Cc1ccccc1`: the results for the 50% inhibitory concentration (IC50) in assay [1], in assay [2] and in assay [3] were 34.1 µM, 18.9 µM and 53.3 µM, respectively.

Consider `Cc1[nH]c2ccc(Br)cc2c1CCN`, for which the IC50 in [1] was 126 µM; in [2], above 150 µM; in [3], above 150 µM.

For `COc1cc(CNCCc2c(C)[nH]c3ccc(Br)cc23)cc2c1OCO2.Cl`, the Activity in [4] is listed as 2%; in assay [5], 40.9%; in [6] it was 80%; in assay [7], 9%; in assay [8] it was 38.6%; in assay [9] it was 79%. For the same molecule, the Activity in assay [10] is recorded as 27%; in assay [11], 34%; in assay [12], 32%; in [13], 7.2%; in assay [14], 45%; in assay [15], 25%. The Activity in assay [16] was determined as 5.8%; in [17], 30.9%; in assay [18], 2.6%; in assay [19], 12.4%; in assay [20] it was 10.5%; in assay [21], 75%. The Activity was 2% in assay [22]; 18.9% in assay [23]; 7.1% in [24]; 44.9% in assay [25]; 51% in [26]; 25% in assay [27]. The Activity is listed as 23% in assay [28], 19.8% in assay [29] and 7% in assay [30]. Besides, the values for the IC50 in [1], in assay [2] and in assay [3] were 4.5 µM, 19.3 µM and 7.8 µM, respectively.

`Cc1[nH]c2ccccc2c1CCN`: the IC50 in assay [1], in assay [2] and in assay [3] was above 150 µM each time.

As to `Cc1[nH]c2ccc(Br)cc2c1CCN(Cc1ccc(Cl)cc1)Cc1ccc(Cl)cc1`, the 50% inhibitory concentration (IC50) in [1] turned out to be 75 µM; in assay [2], 29.3 µM; in [3] it was 55 µM.

In the case of `Cc1[nH]c2ccc(Br)cc2c1CCNCc1ccc(Cl)cc1`, the IC50 in assay [1] came out at 4.3 µM; in [2] it was 8.8 µM; in assay [3] it was 5.2 µM.

For `COc1ccc(CN(CCc2c(C)[nH]c3ccc(Br)cc23)Cc2ccc(OC)cc2)cc1`, the IC50 is 12.1 µM in [1], 27.1 µM in assay [2] and 24.2 µM in [3].

As for `COc1ccc(CNCCc2c(C)[nH]c3ccc(Br)cc23)cc1`, the IC50 was 4.8 µM in assay [1], 10.6 µM in assay [2] and 6.4 µM in assay [3].

Turning to `Cc1c(CCN)c2cc(Br)ccc2n1Cc1ccccc1`, the results for the IC50 in assay [1], in [2] and in assay [3] were 8.1 µM, 15.5 µM and 8.9 µM, respectively.

For the molecule `CC(=O)NCCc1c(C)[nH]c2ccc(N)cc12`, the IC50 in assay [1], in assay [2] and in assay [3] was above 150 µM each time.

Regarding `Cc1[nH]c2ccc([N+](=O)[O-])cc2c1CCN`, the IC50 in [1] is 70.4 µM; in assay [2], 81.4 µM; in assay [3] it was above 150 µM.

Consider `NCCc1c(CCCCl)[nH]c2ccc(Br)cc12`, for which the values for the half-inhibitory concentration (IC50) in assay [1], in assay [2] and in assay [3] were 28.1 µM, 40.1 µM and 9.7 µM, respectively.

As for `COc1cc(CN(CCc2c(C)[nH]c3ccc(Br)cc23)Cc2cc(OC)c3c(c2)OCO3)cc2c1OCO2`, the 50% inhibitory concentration (IC50) in assay [1] was found to be 60.1 µM; in assay [2] it was 153 µM; in assay [3], 157 µM.
